Measurements as given in the NIST ThermoML archive (doi:10.1016/j.jct.2016.04.014).

Conditions: Liquid, Vibrating tube method

CCCCCCC [heptane]
Conditions	mass density [kg/m3]
288.15 K, 100 kPa	688.4
288.15 K, 101 kPa	688.33
288.15 K, 1000 kPa	689.2
288.15 K, 5000 kPa	692.5
288.15 K, 10000 kPa	696.5
288.15 K, 15000 kPa	700.4
288.15 K, 20000 kPa	704.1
288.15 K, 25000 kPa	707.7
288.15 K, 30000 kPa	711.1
288.15 K, 35000 kPa	714.3
288.15 K, 40000 kPa	717.4
288.15 K, 45000 kPa	720.3
288.15 K, 50000 kPa	723.1
288.15 K, 55000 kPa	725.8
288.15 K, 60000 kPa	728.2
293.15 K, 100 kPa	684.2
293.15 K, 101 kPa	684.11
293.15 K, 1000 kPa	685
293.15 K, 5000 kPa	688.4
293.15 K, 10000 kPa	692.6
293.15 K, 15000 kPa	696.5
293.15 K, 20000 kPa	700.4
293.15 K, 25000 kPa	704
293.15 K, 30000 kPa	707.5
293.15 K, 35000 kPa	710.9
293.15 K, 40000 kPa	714
293.15 K, 45000 kPa	717
293.15 K, 50000 kPa	719.9
293.15 K, 55000 kPa	722.5
293.15 K, 60000 kPa	725.1
298.15 K, 100 kPa	679.9
298.15 K, 101 kPa	679.87
298.15 K, 1000 kPa	680.7
298.15 K, 5000 kPa	684.3
298.15 K, 10000 kPa	688.6
298.15 K, 15000 kPa	692.7
298.15 K, 20000 kPa	696.6
298.15 K, 25000 kPa	700.4
298.15 K, 30000 kPa	704
298.15 K, 35000 kPa	707.4
298.15 K, 40000 kPa	710.7
298.15 K, 45000 kPa	713.8
298.15 K, 50000 kPa	716.7
298.15 K, 55000 kPa	719.4
298.15 K, 60000 kPa	721.9
303.15 K, 100 kPa	675.7
303.15 K, 101 kPa	675.6
303.15 K, 1000 kPa	676.5
303.15 K, 5000 kPa	680.2
303.15 K, 10000 kPa	684.6
303.15 K, 15000 kPa	688.9
303.15 K, 20000 kPa	693
303.15 K, 25000 kPa	696.8
303.15 K, 30000 kPa	700.5
303.15 K, 35000 kPa	704
303.15 K, 40000 kPa	707.4
303.15 K, 45000 kPa	710.5
303.15 K, 50000 kPa	713.5
303.15 K, 55000 kPa	716.2
303.15 K, 60000 kPa	718.8
308.15 K, 100 kPa	671.4
308.15 K, 101 kPa	671.31
308.15 K, 1000 kPa	672.2
308.15 K, 5000 kPa	676
308.15 K, 10000 kPa	680.6
308.15 K, 15000 kPa	685
308.15 K, 20000 kPa	689.2
308.15 K, 25000 kPa	693.2
308.15 K, 30000 kPa	697
308.15 K, 35000 kPa	700.6
308.15 K, 40000 kPa	704
308.15 K, 45000 kPa	707.2
308.15 K, 50000 kPa	710.3
308.15 K, 55000 kPa	713.1
308.15 K, 60000 kPa	715.7
313.15 K, 100 kPa	667.1
313.15 K, 101 kPa	667
313.15 K, 1000 kPa	668
313.15 K, 5000 kPa	672
313.15 K, 10000 kPa	676.7
313.15 K, 15000 kPa	681.2
313.15 K, 20000 kPa	685.5
313.15 K, 25000 kPa	689.6
313.15 K, 30000 kPa	693.5
313.15 K, 35000 kPa	697.2
313.15 K, 40000 kPa	700.7
313.15 K, 45000 kPa	704
313.15 K, 50000 kPa	707.1
313.15 K, 55000 kPa	709.9
313.15 K, 60000 kPa	712.6
318.15 K, 100 kPa	662.7
318.15 K, 1000 kPa	663.6
318.15 K, 5000 kPa	667.7
318.15 K, 10000 kPa	672.6
318.15 K, 15000 kPa	677.3
318.15 K, 20000 kPa	681.8
318.15 K, 25000 kPa	686
318.15 K, 30000 kPa	690
318.15 K, 35000 kPa	693.8
318.15 K, 40000 kPa	697.4
318.15 K, 45000 kPa	700.7
318.15 K, 50000 kPa	703.9
318.15 K, 55000 kPa	706.8
318.15 K, 60000 kPa	709.5
323.15 K, 100 kPa	658.3
323.15 K, 1000 kPa	659.3
323.15 K, 5000 kPa	663.5
323.15 K, 10000 kPa	668.6
323.15 K, 15000 kPa	673.4
323.15 K, 20000 kPa	678
323.15 K, 25000 kPa	682.4
323.15 K, 30000 kPa	686.5
323.15 K, 35000 kPa	690.4
323.15 K, 40000 kPa	694.1
323.15 K, 45000 kPa	697.5
323.15 K, 50000 kPa	700.7
323.15 K, 55000 kPa	703.7
323.15 K, 60000 kPa	706.4
328.15 K, 100 kPa	653.9
328.15 K, 1000 kPa	654.9
328.15 K, 5000 kPa	659.3
328.15 K, 10000 kPa	664.5
328.15 K, 15000 kPa	669.5
328.15 K, 20000 kPa	674.3
328.15 K, 25000 kPa	678.8
328.15 K, 30000 kPa	683
328.15 K, 35000 kPa	687
328.15 K, 40000 kPa	690.8
328.15 K, 45000 kPa	694.3
328.15 K, 50000 kPa	697.6
328.15 K, 55000 kPa	700.6
328.15 K, 60000 kPa	703.3
333.15 K, 100 kPa	649.5
333.15 K, 1000 kPa	650.6
333.15 K, 5000 kPa	655.1
333.15 K, 10000 kPa	660.5
333.15 K, 15000 kPa	665.7
333.15 K, 20000 kPa	670.6
333.15 K, 25000 kPa	675.2
333.15 K, 30000 kPa	679.6
333.15 K, 35000 kPa	683.7
333.15 K, 40000 kPa	687.5
333.15 K, 45000 kPa	691.1
333.15 K, 50000 kPa	694.4
333.15 K, 55000 kPa	697.4
333.15 K, 60000 kPa	700.2
343.15 K, 100 kPa	640.5
343.15 K, 1000 kPa	641.6
343.15 K, 5000 kPa	646.5
343.15 K, 10000 kPa	652.3
343.15 K, 15000 kPa	657.8
343.15 K, 20000 kPa	663.1
343.15 K, 25000 kPa	668
343.15 K, 30000 kPa	672.6
343.15 K, 35000 kPa	676.9
343.15 K, 40000 kPa	681
343.15 K, 45000 kPa	684.7
343.15 K, 50000 kPa	688.1
343.15 K, 55000 kPa	691.3
343.15 K, 60000 kPa	694.1
353.15 K, 100 kPa	631.3
353.15 K, 1000 kPa	632.5
353.15 K, 5000 kPa	637.8
353.15 K, 10000 kPa	644
353.15 K, 15000 kPa	649.9
353.15 K, 20000 kPa	655.5
353.15 K, 25000 kPa	660.7
353.15 K, 30000 kPa	665.6
353.15 K, 35000 kPa	670.2
353.15 K, 40000 kPa	674.4
353.15 K, 45000 kPa	678.3
353.15 K, 50000 kPa	681.9
353.15 K, 55000 kPa	685.1
353.15 K, 60000 kPa	688
363.15 K, 100 kPa	621.9
363.15 K, 1000 kPa	623.2
363.15 K, 5000 kPa	628.9
363.15 K, 10000 kPa	635.6
363.15 K, 15000 kPa	641.9
363.15 K, 20000 kPa	647.9
363.15 K, 25000 kPa	653.4
363.15 K, 30000 kPa	658.6
363.15 K, 35000 kPa	663.5
363.15 K, 40000 kPa	667.9
363.15 K, 45000 kPa	672
363.15 K, 50000 kPa	675.7
363.15 K, 55000 kPa	679
363.15 K, 60000 kPa	681.9
373.15 K, 1000 kPa	614.2
373.15 K, 5000 kPa	620.2
373.15 K, 10000 kPa	627.4
373.15 K, 15000 kPa	634.1
373.15 K, 20000 kPa	640.4
373.15 K, 25000 kPa	646.3
373.15 K, 30000 kPa	651.8
373.15 K, 35000 kPa	656.9
373.15 K, 40000 kPa	661.5
373.15 K, 45000 kPa	665.8
373.15 K, 50000 kPa	669.6
373.15 K, 55000 kPa	673.1
373.15 K, 60000 kPa	676.1
393.15 K, 1000 kPa	594.6
393.15 K, 5000 kPa	601.7
393.15 K, 10000 kPa	610
393.15 K, 15000 kPa	617.8
393.15 K, 20000 kPa	625
393.15 K, 25000 kPa	631.7
393.15 K, 30000 kPa	637.9
393.15 K, 35000 kPa	643.6
393.15 K, 40000 kPa	648.7
393.15 K, 45000 kPa	653.3
393.15 K, 50000 kPa	657.4
393.15 K, 55000 kPa	660.9
393.15 K, 60000 kPa	663.9
413.15 K, 1000 kPa	574.1
413.15 K, 5000 kPa	582.3
413.15 K, 10000 kPa	592
413.15 K, 15000 kPa	600.9
413.15 K, 20000 kPa	609.2
413.15 K, 25000 kPa	616.9
413.15 K, 30000 kPa	623.9
413.15 K, 35000 kPa	630.2
413.15 K, 40000 kPa	635.9
413.15 K, 45000 kPa	640.9
413.15 K, 50000 kPa	645.2
413.15 K, 55000 kPa	648.9
413.15 K, 60000 kPa	651.9
